This passage reports inhibition, melting point and IC50 results from US8796244B2, “Imidazopyridine derivatives as inhibitors of receptor tyrosine kinases” (Astex Therapeutics Ltd, priority 2008, dated 2014).

Molecules are shown by their SMILES.

Series [1] has as its system parental wild-type Ba/F3 cells. The series is described as follows: Ba/F3 (WT) cell proliferation assay (Alamar Blue). The series is classed as cell-based. The conditions noted are these: Mus musculus; for inhibition at 10 µM / inhibition at 1 µM / inhibition at 3 µM: BaF3, read-out: BaF3 WT prolif, % inhibition; for IC50: BaF3, 72 hours, Alamar Blue, read-out: BaF3 WT prolif.

Series [2] relates to Ba/F3-TEL-FGFR3 cells. The series is described as follows: Ba/F3-TEL-FGFR3 cell proliferation assay (Alamar Blue). The series is classed as cell-based. Conditions: 72 hours, Alamar Blue; read-out: BaF3-TEL-FGFR3 prolif.
Series [3] has as its target FGFR3 (Homo sapiens (Human), UniProt P22607). Kind of series: FGFR3 in vitro kinase inhibitory activity assay (TRF). The conditions noted are these: 3 h, read-out: FGFR3 % I.
For series [4], the target named is VEGFR2 (Homo sapiens (Human), UniProt P35968). The series is described as follows: VEGFR2 in vitro kinase inhibitory activity assay (TRF, Flt3 substrate). The series is classed as biochemical. The conditions noted are these: for inhibition at 1 µM: 1 h, read-out: VEGFR2 % I.
For series [5], the system named is LP-1 cell line (FGF-1/Heparin induced pERK). The series is described as follows: Cell-based pERK ELISA, LP-1 cells. The conditions noted are these: Homo sapiens, LP-1, read-out: LP-1 pERK ELISA (μM). On the technique in general: In an ELISA, binding on a coated surface is turned into a signal by an enzyme label.

One may read the melting point as the temperature, or range, at which the solid turns liquid.

VEGFR2, sequence (P35968 20-1356): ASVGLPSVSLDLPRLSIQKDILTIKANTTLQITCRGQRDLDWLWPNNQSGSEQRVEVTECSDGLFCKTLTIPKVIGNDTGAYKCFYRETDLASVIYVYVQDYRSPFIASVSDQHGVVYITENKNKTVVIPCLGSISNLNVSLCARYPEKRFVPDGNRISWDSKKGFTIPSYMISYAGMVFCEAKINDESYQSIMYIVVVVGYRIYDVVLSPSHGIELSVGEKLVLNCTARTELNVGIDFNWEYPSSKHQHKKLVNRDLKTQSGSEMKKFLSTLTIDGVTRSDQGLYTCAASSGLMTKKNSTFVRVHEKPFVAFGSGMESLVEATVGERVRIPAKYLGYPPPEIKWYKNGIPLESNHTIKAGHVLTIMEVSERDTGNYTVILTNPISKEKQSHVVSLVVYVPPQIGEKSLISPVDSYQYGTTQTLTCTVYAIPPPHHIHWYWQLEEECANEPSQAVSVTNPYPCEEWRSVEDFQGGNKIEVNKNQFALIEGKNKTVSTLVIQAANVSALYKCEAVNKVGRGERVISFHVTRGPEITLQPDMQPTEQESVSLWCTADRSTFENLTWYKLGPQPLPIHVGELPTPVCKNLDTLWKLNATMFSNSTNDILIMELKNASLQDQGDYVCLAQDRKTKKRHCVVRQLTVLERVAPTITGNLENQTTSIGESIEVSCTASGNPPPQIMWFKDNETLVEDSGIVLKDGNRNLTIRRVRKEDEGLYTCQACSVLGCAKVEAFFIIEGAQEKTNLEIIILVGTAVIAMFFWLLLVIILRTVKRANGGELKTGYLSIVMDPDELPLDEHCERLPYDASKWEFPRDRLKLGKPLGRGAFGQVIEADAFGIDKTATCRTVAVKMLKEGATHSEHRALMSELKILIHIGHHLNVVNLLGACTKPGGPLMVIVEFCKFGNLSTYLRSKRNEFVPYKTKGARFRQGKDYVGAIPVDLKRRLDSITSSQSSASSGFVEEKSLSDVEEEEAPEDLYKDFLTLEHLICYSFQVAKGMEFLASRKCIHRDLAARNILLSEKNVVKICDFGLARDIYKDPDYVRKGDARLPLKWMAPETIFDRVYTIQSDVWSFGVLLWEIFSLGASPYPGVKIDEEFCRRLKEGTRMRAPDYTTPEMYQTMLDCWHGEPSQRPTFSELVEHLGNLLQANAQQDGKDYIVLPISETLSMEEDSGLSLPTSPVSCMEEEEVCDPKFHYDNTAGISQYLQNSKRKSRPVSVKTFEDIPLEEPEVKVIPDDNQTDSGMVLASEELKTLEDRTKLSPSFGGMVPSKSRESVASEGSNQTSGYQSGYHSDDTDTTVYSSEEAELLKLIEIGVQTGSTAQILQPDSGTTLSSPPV
FGFR3, sequence (P22607 23-806): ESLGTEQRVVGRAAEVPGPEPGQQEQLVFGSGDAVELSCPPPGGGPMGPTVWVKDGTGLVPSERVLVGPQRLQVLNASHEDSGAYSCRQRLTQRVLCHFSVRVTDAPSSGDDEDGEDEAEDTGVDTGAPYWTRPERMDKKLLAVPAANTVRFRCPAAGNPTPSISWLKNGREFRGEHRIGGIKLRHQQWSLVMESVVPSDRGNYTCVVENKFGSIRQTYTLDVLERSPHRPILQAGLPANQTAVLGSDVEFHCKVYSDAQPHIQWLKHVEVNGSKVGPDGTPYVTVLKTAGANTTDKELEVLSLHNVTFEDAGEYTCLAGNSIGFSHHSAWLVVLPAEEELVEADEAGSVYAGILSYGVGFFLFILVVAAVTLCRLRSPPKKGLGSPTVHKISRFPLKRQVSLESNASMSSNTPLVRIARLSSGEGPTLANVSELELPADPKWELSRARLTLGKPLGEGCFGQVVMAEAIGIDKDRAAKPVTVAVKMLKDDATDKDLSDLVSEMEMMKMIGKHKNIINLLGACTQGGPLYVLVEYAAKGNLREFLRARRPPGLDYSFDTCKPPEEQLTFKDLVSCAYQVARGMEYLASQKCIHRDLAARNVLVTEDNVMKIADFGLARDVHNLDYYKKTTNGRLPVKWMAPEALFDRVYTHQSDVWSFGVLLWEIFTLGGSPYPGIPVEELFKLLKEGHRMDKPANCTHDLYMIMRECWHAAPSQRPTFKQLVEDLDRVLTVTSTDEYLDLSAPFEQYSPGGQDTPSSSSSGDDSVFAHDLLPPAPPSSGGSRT

`Cn1cncc1C#Cc1ccn2c(-c3cccc(NC(N)=O)c3)cnc2c1` [Compound 267] showed a melting point of 162 °C. In addition, in series [1], the inhibition at 10 µM turned out to be 55%.

With `CN(C)S(=O)(=O)NCC1CCN(c2ccc(-c3ccn4c(-c5cccc(NC(=O)NCC(F)(F)F)c5)cnc4c3)cn2)CC1` [Compound 272], the melting point came out at 145 °C. Also, the IC50 in series [1] stood at 0.2 µM. Moreover, in series [2], the IC50 stood at 0.051 µM. Further, the inhibition at 0.00097 µM in series [3] turned out to be 51%.

Consider `O=C(NCC(F)(F)F)Nc1cccc(-c2cnc3cc(-c4ncc(CO)cn4)ccn23)c1` [Compound 276], for which the melting point was determined as 222 °C. Moreover, the inhibition at 1 µM in series [1] came out at 0%.

On to `Nc1nc(-c2ccn3c(-c4cc(NC(=O)NCC(F)(F)F)cc(C(F)(F)F)c4)cnc3c2)ncc1F` [Compound 258], for which the melting point is 185 °C. The inhibition at 3 µM in series [1] worked out at 36%. In addition, the inhibition at 1 µM in series [4] is 37%.

Take `CS(=O)(=O)Nc1nc(-c2ccn3c(-c4cccc(NC(=O)NCC(F)(F)F)c4)cnc3c2)ncc1F` [Compound 279]: the melting point is > 350 °C. In series [1], the inhibition at 10 µM worked out at 7%.

With `Nc1nc(-c2ccn3c(-c4cccc(NC(=O)NCC(F)(F)F)c4)cnc3c2)ncc1CN1CCC1` [Compound 259], the melting point came to 195 °C. Also, in series [1], the IC50 was 2.6 µM.

Turning to `CC(C)(O)c1cnc(-c2ccn3c(-c4cccc(NC(=O)NCC(F)(F)F)c4)cnc3c2)nc1` [Compound 257], the melting point came to 146 °C. The IC50 in series [1] turned out to be 3.9 µM.

Consider `Nc1nnc(-c2ccn3c(-c4cccc(NC(=O)NCC(F)(F)F)c4)cnc3c2)s1` [Compound 261], for which the melting point is > 260 °C. Also, the inhibition at 10 µM in series [1] amounted to 0%.

The molecule `NC(=O)Nc1cccc(-c2cnc3cc(-c4nncs4)ccn23)c1` [Compound 268] showed a melting point of 259 °C. For the same molecule, in series [1], the inhibition at 3 µM is 23.5%. In addition, in series [5], the IC50 came to 1.83 µM.

`COc1cc(NC(=O)NCC(F)(F)F)cc(-c2cnc3cc(-c4ncc(F)c(N)n4)ccn23)c1` [Compound 252] displayed a melting point of 154 °C. In addition, in series [1], the inhibition at 1 µM was 0%. Also, the IC50 in series [4] was > 1 µM.

`CCNC(=O)Nc1cccc(-c2cnc3cc(C#Cc4cncn4C)ccn23)c1` [Compound 264] gave a melting point of 163 °C. For the same molecule, in series [1], the inhibition at 10 µM stood at 25%. Also, the IC50 in series [5] worked out at 0.31 µM.

As for `CC(O)c1cnc(-c2ccn3c(-c4cccc(NC(=O)NCC(F)(F)F)c4)cnc3c2)nc1` (centres unmarked) [Compound 278], the melting point stood at 224 °C. In addition, in series [1], the inhibition at 1 µM came to 0%.

`O=C(NCC(F)(F)F)Nc1cccc(-c2cnc3cc(C#Cc4nccn4CCO)ccn23)c1` [Compound 262]: the melting point worked out at 228 °C. In series [1], the inhibition at 10 µM came to 20%.

`N#Cc1ccc(-c2ccn3c(-c4cccc(NC(=O)NCC(F)(F)F)c4)cnc3c2)nn1` [Compound 255] had a melting point of 267 °C. The inhibition at 10 µM in series [1] amounted to 0%.

Regarding `CC(C)COC(=O)Nc1nc(-c2ccn3c(-c4cccc(NC(=O)NCC(F)(F)F)c4)cnc3c2)ncc1F` [Compound 273], the melting point amounted to 215.2 °C. For the same molecule, in series [1], the inhibition at 10 µM amounted to 43%. Further, the inhibition at 1 µM in series [4] stood at 40%.

`O=C(NCC(F)(F)F)Nc1cc(F)cc(-c2cnc3cc(-c4ccnc(C(F)(F)F)n4)ccn23)c1` [Compound 251] had a melting point of 263 °C. In addition, the inhibition at 10 µM in series [1] was 0%.

`NCc1cc(NC(=O)NCC(F)(F)F)cc(-c2cnc3cc(-c4ccnc(C(F)(F)F)n4)ccn23)c1` [Compound 274] showed a melting point of 190 °C. Besides, the inhibition at 1 µM in series [4] was 55%.

In the case of `O=C(NCC(F)(F)F)Nc1cccc(-c2cnc3cc(-c4nnc(NC5CC5)s4)ccn23)c1` [Compound 250], the melting point was > 280 °C. In series [1], the inhibition at 3 µM was 25% and the IC50 was determined as 1.73 µM. In series [5], the IC50 came out at 0.075 µM.

In turn, `O=C(NCC(F)(F)F)Nc1cccc(-c2cnc3cc(-c4nccc(N5CCN(CCO)CC5)n4)ccn23)c1` [Compound 270] showed a melting point of 179.8 °C. Further, the inhibition at 3 µM in series [1] amounted to 16%.

In the case of `Cn1cncc1C#Cc1ccn2c(-c3cncc(NC(=O)NCC(F)(F)F)c3)cnc2c1` [Compound 265], the melting point is > 250 °C. The IC50 in series [4] is > 30 µM.

Consider `NCC1CCN(c2ccc(-c3ccn4c(-c5cccc(NC(=O)NCC(F)(F)F)c5)cnc4c3)cn2)CC1` [Compound 271], for which the melting point was 80 °C. For the same molecule, the IC50 in series [1] was 0.12 µM. In series [2], the IC50 came to 0.063 µM. Further, the inhibition at 0.001 µM in series [3] is 59%.
